Results reported in patent publication US7795315B2, “N-(2-amino-phenyl)-amide derivatives” (Hoffman-La Roche Inc., priority 2008, dated 2010).

How the values were obtained:
Format in all cases: cell-based
[1] = system: p21 promoter-luciferase construct in HeLa cells; assay: p21 reporter gene induction; conditions: 3 micromolar, 15 hours, relative to SNDX-275
Experimental: (§1) The novel compounds of the present invention were tested for their ability to induce p21 gene expression using a reporter gene assay involving HeLa cells transfected with a p21 promoter-luciferase construct. The p21 promoter contained the Sp1/Sp3 binding site for HDAC but not the upstream p53 binding site. Briefly, the day before transfection, HeLa cells were seeded at 11,000 cells/well in a 96-well culture plate and incubated at 37 degrees Celsius in 5% CO2 overnight. For transfection, the medium was removed and replaced with 100 microliters/well transfection media previously prepared as follows: 5 microliters serum-free DMEM, 0.15 microliters Fugene 6 reagent, 40 ng p21-luc, 10 ng GFP were mixed gently and incubated at room temperature for 30 minutes; then 98 microliters DMEM (with 10% FBS, 1% penicillin and streptomycin) was added to the DNA:Fugene 6 reagent complex and mixed gently. After incubating the cells for 24 hours at 37 degrees Celsius in 5% CO2, fresh media and test compounds were added to the wells and the cells further incubated for 15 hours at 37 degrees Celsius in 5% CO2. Cells were lysed by adding 80 microliters/well of a cell culture lysis reagent (Promega). 50 microliters of each lysate was taken for GFP detection using an excitation wavelength of 486 nm and detection at 527 nm. 100 microliters Luciferase assay reagent (Promega) was then added to every 20 microliters cell lysate for luminometer detection. […] Induction activity for specific representative compounds can be found in Table 4.

[2] = system: HCT-116 colon cancer cells; assay: Antiproliferative activity, growth inhibition (MTS/WST assay); conditions: Homo sapiens, 72 hour growth inhibition, read-out: GI50 HCT116
Experimental: The novel compounds of the present invention were tested for their ability to inhibit growth of various cancer cell lines (HeLa, MCF7, U2OS, HepG2, HL60, HCT-116) using in vitro growth inhibition assays described below.
Cells were seeded in 96-well culture plates (200 microliters/well at different seeding concentrations depending on cell type) and incubated overnight at 37 degrees Celsius in 5% CO2. After adding compound dilutions to the cells (DMSO concentration kept below 0.5%), the cells were incubated at 37 degrees Celsius in 5% CO2 for 72 hours. The effects on proliferation were determined by addition of MTS reagent (Promega) according to the manufacturer's instruction, followed by incubation for 2 hours at 37 degrees Celsius in 5% CO2, and finally recording the absorbance at 490 nm using an ELISA plate reader.
Similar to MTS assay except that the developer is the CCK-8 reagent (Dojindo) and the plate reader is set to 450 nm absorbance.
GI50 values against HCT-116 colon cancer cells for specific representative compounds can be found in Table 4.

[3] = system: klf2 promoter-luciferase construct in A204 cells; assay: klf2 reporter gene induction (p21 versus klf2 selectivity); conditions: SNDX-275 p21/klf2 ratio defined as 1.0; for p21/klf2 (RP3): relative selectivity compared with SNDX-275: 3 micromolar; for p21/klf2 (RP10): relative selectivity compared with SNDX-275: 10 micromolar
Experimental: as §1
The novel compounds of the present invention were tested for their ability to induce klf2 gene expression using a reporter gene assay involving A204 cells transfected with a klf2 promoter-luciferase construct. The klf2 promoter contained the MEF2 binding site for HDAC3/class IIa HDAC complex. Briefly, the day before transfection, A204 cells were seeded at 11,000 cells/well in a 96-well culture plate and incubated at 37 degrees Celsius in 5% CO2 overnight. For transfection, the medium was removed and replaced with 100 microliters/well transfection media previously prepared as follows: 5 microliters serum-free DMEM, 0.15 microliters Fugene 6 reagent, 40 ng klf2-luc, 10 ng GFP were mixed gently and incubated at room temperature for 30 minutes; then 98 microliters DMEM (with 10% FBS, 1% penicillin and streptomycin) was added to the DNA:Fugene 6 reagent complex and mixed gently. After incubating the cells for 24 hours at 37 degrees Celsius in 5% CO2, fresh media and test compounds were added to the wells and the cells further incubated for 15 hours at 37 degrees Celsius in 5% CO2. Finally, 10 ng/ml TNF-α was added and the cells further incubated for 4 hours. Cells were lysed by adding 80 microliters/well of a cell culture lysis reagent (Promega). 50 microliters of each lysate was taken for GFP detection using an excitation wavelength of 486 nm and detection at 527 nm. 100 microliters Luciferase assay reagent (Promega) was then added to every 20 microliters cell lysate for luminometer detection.

| SMILES | GI50 [2] [nM] | p21 (RP3): relative induction potency compared with SNDX-275 [1] [%] | p21/klf2 (RP3): relative selectivity compared with SNDX-275 [3] | p21/klf2 (RP10): relative selectivity compared with SNDX-275 [3] |
| --- | --- | --- | --- | --- |
| CN(C)CCNC(C(=O)Nc1ccc(C(F)(F)F)cc1)c1ccc(/C=C/C(=O)Nc2ccccc2N)cc1 (stereo not drawn) [Example 4-1, (E)-N-(2-Amino-phenyl)-3-{4-[(2-dimethylamino-ethylamino)-(4-trifluoromethyl-phenylcarbamoyl)-methyl]-phenyl}-acrylamide] | 700 | 300 | 1.4 | 5.5 |
| Nc1ccccc1NC(=O)/C=C/c1ccc(C(NCCN2CCCCC2)C(=O)Nc2ccc(C(F)(F)F)cc2)cc1 (stereo not drawn) [Example 4-2, (E)-N-(2-Amino-phenyl)-3-{4-[(2-piperidin-1-yl-ethylamino)-(4-trifluoromethyl-phenylcarbamoyl)-methyl]-phenyl}-acrylamide] | 700 | 324 | 2.2 | 3.6 |
| CN(C)CCNC(C(=O)Nc1ccc(OC(F)(F)F)cc1)c1ccc(/C=C/C(=O)Nc2ccccc2N)cc1 (stereo not drawn) [Example 4-6, (E)-N-(2-Amino-phenyl)-3-{4-[(2-dimethylamino-ethylamino)-(4-trifluoromethoxy-phenylcarbamoyl)-methyl]-phenyl}-acrylamide] | 600 | 184 | 1.4 | 3.0 |
| Nc1ccccc1NC(=O)/C=C/c1ccc(C(NCCN2C[C@@H]3C[C@H]2CO3)C(=O)Nc2ccc(C(F)(F)F)cc2)cc1 (stereo partly drawn) [Example 4-12, (E)-N-(2-Amino-phenyl)-3-{4-[[(1S,4S)-2-(2-oxa-5-aza-bicyclo[2.2.1]hept-5-yl)-ethylamino]-(4-trifluoromethyl-phenylcarbamoyl)-methyl]-phenyl}-acrylamide] | 400 | 167 | 10.6 | 0.8 |
| Nc1ccccc1NC(=O)/C=C/c1ccc(C(NCCN2CCSCC2)C(=O)Nc2ccc(C(F)(F)F)cc2)cc1 (stereo not drawn) [Example 4-14, (E)-N-(2-Amino-phenyl)-3-{4-[(2-thiomorpholin-4-yl-ethylamino)-(4-trifluoromethyl-phenylcarbamoyl)-methyl]-phenyl}-acrylamide] | 600 | 84 | 1.2 | 5.1 |
| Nc1ccccc1NC(=O)/C=C/c1ccc(C(NCCN2CCOCC2)C(=O)Nc2ccc(C(F)(F)F)cc2F)cc1 (stereo not drawn) [Example 4-22, (E)-N-(2-Amino-phenyl)-3-{4-[(2-fluoro-4-trifluoromethyl-phenylcarbamoyl)-(2-morpholin-4-yl-ethylamino)-methyl]-phenyl}-acrylamide] | 1200 | 103 | 1.8 | 2.0 |
| CN(C)CCNC(C(=O)Nc1ccc(C(F)(F)F)cc1F)c1ccc(/C=C/C(=O)Nc2ccccc2N)cc1 (stereo not drawn) [Example 4-24, (E)-N-(2-Amino-phenyl)-3-{4-[(2-dimethylamino-ethylamino)-(2-fluoro-4-trifluoromethyl-phenylcarbamoyl)-methyl]-phenyl}-acrylamide] | 2100 | 162 | 1.5 | 1.5 |
| Nc1ccccc1NC(=O)/C=C/c1ccc(C(NCCN2CCCCC2)C(=O)Nc2ccc(Br)cc2)cc1 (stereo not drawn) [Example 4-31, (E)-N-(2-Amino-phenyl)-3-{4-[(4-bromo-phenylcarbamoyl)-(2-piperidin-1-yl-ethylamino)-methyl]-phenyl}-acrylamide] | 200 | 178 | 1.2 | 1.2 |
| Nc1ccccc1NC(=O)/C=C/c1ccc(C(NCCN2CCCCC2)C(=O)Nc2ccc(C(F)(F)F)cc2F)cc1 (stereo not drawn) [Example 4-35, (E)-N-(2-Amino-phenyl)-3-{4-[(2-fluoro-4-trifluoromethyl-phenylcarbamoyl)-(2-piperidin-1-yl-ethylamino)-methyl]-phenyl}-acrylamide] | 1300 | 140 | 2.0 | 3.0 |

The next lines start with results.

| GI50 [2] [nM] | SMILES | p21 (RP3): relative induction potency compared with SNDX-275 [1] [%] | p21/klf2 (RP3): relative selectivity compared with SNDX-275 [3] | p21/klf2 (RP10): relative selectivity compared with SNDX-275 [3] |
| --- | --- | --- | --- | --- |
| 1000 | N#Cc1ccc(NC(=O)C(NCCN2CCOCC2)c2ccc(/C=C/C(=O)Nc3ccccc3N)cc2)cc1 (stereo not drawn) [Example 4-3, (E)-N-(2-Amino-phenyl)-3-{4-[(4-cyano-phenylcarbamoyl)-(2-morpholin-4-yl-ethylamino)-methyl]-phenyl}-acrylamide] | 99 | 0.8 | 1.2 |
| 1100 | Nc1ccccc1NC(=O)/C=C/c1ccc(C(NCCN2CCOCC2)C(=O)Nc2ccc(OC(F)(F)F)cc2)cc1 (stereo not drawn) [Example 4-4, (E)-N-(2-Amino-phenyl)-3-{4-[(2-morpholin-4-yl-ethylamino)-(4-trifluoromethoxy-phenylcarbamoyl)-methyl]-phenyl}-acrylamide] | 125 | 1.2 | 3.1 |
| 800 | Nc1ccccc1NC(=O)/C=C/c1ccc(C(NCCCN2CCOCC2)C(=O)Nc2ccc(C(F)(F)F)cc2)cc1 (stereo not drawn) [Example 4-5, (E)-N-(2-Amino-phenyl)-3-{4-[(3-morpholin-4-yl-propylamino)-(4-trifluoromethyl-phenylcarbamoyl)-methyl]-phenyl}-acrylamide] | 241 | 1.2 | 4.5 |
| 2100 | Nc1ccccc1NC(=O)/C=C/c1ccc(C(NCCN2CCOCC2)C(=O)Nc2ccc(C(F)(F)F)c(Cl)c2)cc1 (stereo not drawn) [Example 4-29, (E)-N-(2-Amino-phenyl)-3-{4-[(3-chloro-4-trifluoromethyl-phenylcarbamoyl)-(2-morpholin-4-yl-ethylamino)-methyl]-phenyl}-acrylamide] | 48 | 0.6 | 2.3 |
| 2000 | Nc1ccccc1NC(=O)/C=C/c1ccc(C(NCCN2CCOCC2)C(=O)Nc2ccc(C(F)(F)F)c(F)c2)cc1 (stereo not drawn) [Example 4-36, (E)-N-(2-Amino-phenyl)-3-{4-[(3-fluoro-4-trifluoromethyl-phenylcarbamoyl)-(2-morpholin-4-yl-ethylamino)-methyl]-phenyl}-acrylamide] | 43 | 0.7 | 3.1 |
| 1000 | CC(C)c1ccc(NC(=O)C(NCCN2CCOCC2)c2ccc(/C=C/C(=O)Nc3ccccc3N)cc2)cc1 (stereo not drawn) [Example 4-37, (E)-N-(2-Amino-phenyl)-3-{4-[(4-isopropyl-phenylcarbamoyl)-(2-morpholin-4-yl-ethylamino)-methyl]-phenyl}-acrylamide] | 60 | 1.1 | 1.7 |
